This is an account of results in patent US20090004683A1, “Indicator Agent for Noninflammatory Stress Response and Use Thereof” (priority 2004, published 2009).

One test relates to procaspase-11. Put plainly: Procaspase-11 protein in the adrenal of restraint stress mice (Western blotting). Format: in vivo, mouse. The following applies: given i.p. during restraint. The procedure:
(§1) Each mouse was kept in a restrainer for 1 hour, and Ac-YVAD-CHO (200 μM/50 μl PBS(−)), Z-FA-fmk (100 μM/50 μl PBS(−)) and SB-203580 (100 μg/50 μl PBS(−) per mouse) were administered intraperitoneally. 1 and 3 hours after the start of restraint, SOD-1 (20 U) and DPI (30 μg) were administered intraperitoneally to the mouse, and samples were analyzed by Western blotting.
Western blot analysis of IL-18 and phosphorylated P38MAP kinase in adrenal tissue was performed as described below. The adrenal tissue was homogenized in an immunoprecipitation (IP) buffer solution (50 mM Tris pH 7.4, 150 mM NaCl, 0.5% NP-40 and 0.5% sodium deoxycholate) containing a protease inhibitor mixture (manufactured by Roche Diagnostics) using a Polytron homogenizer. […] The aforementioned membrane was incubated with an antibody (IL-18, phosphorylated (Thr180/Tyr182) P38 MAP kinase, caspase-1 or caspase-11), and the reacted protein was detected using an ECL plus system (manufactured by Amersham biosciences). Procaspase-11 and activated P38 MAP kinase were quantified using a Science Lab 99 image analysis system (manufactured by Fujifilm).

A further test deals with IL-18. In words: Plasma IL-18 level in restraint stress mice (ELISA). Format: in vivo, mouse. Conditions: given i.p. during restraint (Ac-YVAD-CHO 200 μM/50 μl, Z-FA-fmk 100 μM/50 μl, SB-203580 100 μg, SOD-1 20 U, DPI 30 μg). The procedure:
For restraint stress, each mouse was kept in a restrainer (a round plastic tube 27 mm in diameter) for 1, 3 or 6 hours, and IL-18 levels were measured. Regarding the analysis of IL-6, each mouse was restrained as described above, and then housed in the starting cage for 6 hours, after which a measurement was performed.
After restraint, each mouse was anesthetized with diethyl ether, and blood was drawn into an EDTA-containing tube. Plasma was separated by centrifugation at 4° C. and 10000×g for 10 minutes, and stored at −80° C. IL-18 and IL-6 were analyzed by ELISA using Quantikine™ immunoassay kit (R&D Systems) and OptEIA™ (BD-Pharmingen), respectively.
The anti-ACTH antiserum (50 μl, 1:1), dexamethasone (1 ng/50 μl PBS(−)) or the anti-IL-18 antibody (50 μl, 1:1) was administered intraperitoneally to each mouse; after 10 minutes elapsed, the animal was kept in a restraint tube for 6 hours. Synthetic ACTH (250 μg/50 μl PBS(−)) was injected to the left leg; after 6 hours elapsed, the mice were subjected to the experiment.
as §1

In test [1] the test system is Primary culture human skin keratinocytes. Put plainly: IL-18 release from keratinocytes with UV-B ray irradiation. The following applies: 100 mJ UV-B, SOD 1-20 U/ml or water-soluble vitamin E 100 nM-10 mM/ml. Format: cell-based. The procedure:
Primary culture human skin keratinocytes (keratinocytes: purchased from CAMBREX Company) were cultured in a basal medium for keratinocytes contained in petri dishes for cell culture 6 cm in diameter at 1.0-2.0×10^6/dish. This was irradiated with 100 mJ of ultraviolet B rays (UV-B rays), after which the cells were cultured for 1 hour, after which the medium was collected, and the concentration of IL-18 protein in the medium was measured. Also, after the UV-B ray treatment, the cells were cultured in a medium containing SOD (1, 2.5, 5, 10, 20 U/ml), which is an active oxygen eliminator, or water-soluble vitamin E (100 nM, 1, 2.5, 5, 10 mM/ml), and the concentration of IL-18 protein in the medium was measured. In the keratinocytes, the activation and release of IL-18 by the active oxygen molecular species were observed. Furthermore, these were suppressed by SOD, which is an active oxygen eliminator, or by vitamin E, which neutralizes active oxygen, dose-dependently (FIGS. 7C and 7D).

In test [2] the test system is Primary culture human renal proximal tubular epithelial cells. Put plainly: IL-18 release from renal tubular epithelial cells with paraquat stimulation. It is filed as cell-based. Conditions: renal tubular epithelial cells, 100 nM paraquat 15 minutes; SOD 1-20 U/ml or water-soluble vitamin E 100 nM-10 mM/ml.
Experimental: Primary culture human renal proximal tubular epithelial cells (purchased from CAMBREX Company) were cultured in a basal medium for renal tubular cells: contents 10 μg/ml hEGF (recombinant human epithelial cell growth factor) 0.5 ml, 5 mg/ml insulin 0.5 ml, 0.5 mg/ml hydrocortisone 0.5 ml, FBS (fetal bovine serum) 2.5 ml, 0.5 mg/ml epinephrine 0.5 ml, 6.5 μg/ml triiodothyronine 0.5 ml, 10 mg/ml transferrin 0.5 ml, 50 mg/ml gentamycin, 50 μg/ml amphotericin-B 0.5 ml), in petri dishes for cell culture 6 cm in diameter at 1.0-2.0×10^6/dish. This was cultured in the aforementioned medium containing 100 nM of paraquat, which is an active oxygen generator, for 15 minutes, after which the medium was exchanged with the same but paraquat-free medium. After the cells were further cultured for 1 hour, the medium was collected, and the concentration of IL-18 protein in the medium was measured.
A further test relates to Brain astrocytes. In words: IL-18 release from astrocytes with paraquat stimulation. It is filed as cell-based, mouse. The following applies: astrocytes, 100 nM paraquat 1 hour; SOD 1-20 U/ml or water-soluble vitamin E 100 nM-10 mM/ml. The procedure: Brain astrocytes isolated from the mouse neonatal brain by the method of Yang et al. (Yang P, Hernandez M R. Brain Res Brain Res Protoc. 2003 October; 12(2):67-76) were prepared at 1.5-2.0×10^6/ml. This was cultured in Dulbecco's minimum essential medium containing 100 nM of paraquat, which is an active oxygen generator, for 1 hour, after which the medium was exchanged with a paraquat-free medium. The cells were further cultured for 3 hours, after which the medium was collected, and the concentration of IL-18 protein in the medium was measured.

The subject of a further test is Brain microglia. In words: IL-18 release from microglia with paraquat stimulation. Format: cell-based, mouse. The following applies: microglia, 100 nM paraquat 1 hour; SOD 1-20 U/ml or water-soluble vitamin E 100 nM-10 mM/ml. The procedure:
Brain microglia isolated from the mouse neonatal brain by the method of Hassan et al. (Hassan N F, Rifat S, Campbell D E, McCawley L J, Douglas S D. J. Leukoc Biol. 1991 July; 50(1):86-92) were cultured at 1.5-2.0×10^6/ml. This was cultured in Dulbecco's minimum essential medium containing 100 nM of paraquat, which is an active oxygen generator, for 1 hour, after which the medium was exchanged with a paraquat-free medium. After further cultivation for 3 hours, the medium was collected, and the concentration of IL-18 protein in the medium was measured.

A further test concerns Synovial membrane tissue. Put plainly: IL-18 release from synovial membrane tissue with paraquat stimulation. Format: cell-based, human. Conditions: synovial membrane tissue of articular rheumatism patient, 100 nM paraquat 15 minutes; SOD 1-20 U/ml. The procedure: Synovial membrane tissue collected from the articular synovial membrane at a lesion site of an articular rheumatism patient was subjected to tissue culture in an RPMI-1640 medium containing 10% fetal bovine serum by the method of Tanaka et al. (Tanaka M, Harigai M, Kawaguchi Y, Ohta S, Sugiura T, Takagi K, Ohsako-Higami S, Fukasawa C, Hara M, Kamatani N., J. Rheumatol. 2001 August; 28(8):1779-87). The medium was exchanged with the aforementioned medium containing 100 nM of paraquat, which is an active oxygen generator, and the cells were cultured for 15 minutes, after which the medium was exchanged with a paraquat-free medium, and the cells were further cultured for 1 hour, after which the medium was collected, and the concentration of IL-18 protein in the medium was measured.

For “SOD: superoxide dismutase (SOD)-1 purchased from Sigma; active oxygen eliminator”, in the test on procaspase-11, the “stress-induced increase in procaspase-11 protein” value is listed as “reduced”. The “stress-induced increase in plasma IL-18 level” value in the test with IL-18 is recorded as “reduced”. Besides, the “activation and release of IL-18 into the medium” value (in test [1]; in test [2]; in the test on Brain astrocytes; in the test with Brain microglia; in the test on Synovial membrane tissue) was “suppressed” each time.
